Measurements published in patent publication US11352350B2, “IRAK degraders and uses thereof” (Kymera Therapeutics, Inc., priority 2018, dated 2022).
pIC50: −log10 of the molar value. Read-outs that look alike come from different tables or passages of the source.

Legend:
[1] = system: OCI-LY10; experiment: CTG Cell Viability Assay - OCI-LY10; type: cell-based, human; conditions: Homo sapiens, OCI-Ly10, 96 h, OCI-LY10, 4 days; read-out: CTG Cell Viability Assay - OCI-LY10: Average external-IC50
Description: Compound-mediated viability effect on OCI-LY10 or TMD8 was quantitatively determined using the CellTiter-Glo® Luminescent Cell Viability Assay kit from Promega (Catalog number G7570) following manufacturer's recommended procedures. […] Compounds were then added to the assay plate with final top concentration of 10 μM and 1:3 dilution series with total of 9 doses. The final DMSO concentration was normalized to 0.2%. The assay plates were incubated at 37° C. for 4 days under 5% CO2. Then the assay plate was equilibrated at room temperature for 10 minutes. […] The data was then analyzed by software Prism 7.0 from GraphPad and the dose response curves were fit using a three-parameter logistic equation to calculate IC50.

[2] = target: IRAK4 (Homo sapiens (Human), UniProt Q9NWZ3); experiment: IRAK4 MSD degradation in OCI-LY10; type: cell-based
Description: Degradation of IRAK4 in OCI-LY10 was quantitatively measured using Meso Scale Discovery technology. […] Compounds were then added to the assay plates with a final top concentration of 1 to 10 μM in a 1:3 dilution series with total of 8 doses. The assay plates were then incubated for 4 to 24 hours at 37° C. under 5% CO2. […] To prepare MSD assay plates (Meso Scale Discovery Catalog number L15XA-3), the plates were coated with […] capture antibody (mouse Anti-IRAK4 antibody [2H9], ab119942) in PBS, at 40 μL/well. […] Cell lysates were then added to MSD assay plates and the plates were incubated at room temperature for 1 hour. The plates were then washed 3 times with 150 μL/well TBST buffer and 25 μL/well primary detection antibody (rabbit Anti-IRAK4 antibody [Y279], from Abcam. Catalog number ab32511, […]). The assay plates were then incubated at room temperature for 1 hour, washed 3 times with 150 μL/well TBST buffer and 25 µL/well secondary detection antibody, SULFO-TAG anti-rabbit antibody were added (anti rabbit antibody from Meso Scale Discovery, Catalog number R32AB-1, 1 μg/mL). The assay plates were then incubated at room temperature for 1 hour, washed 3 times with 150 μL/well TB ST buffer, and 150 μL/well MSD reading buffer (Meso Scale Discovery catalog number R92TC-2) was added. The plates were then analyzed by a MSD reader (Meso Scale Discovery, Model Quick Plex SQ 120). The data was then analyzed by software Prism 7.0 from GraphPad and the dose-depended IRAK4 degradation were fit using a three-parameter logistic equation to calculate DC50.

[3] = OCI-LY10, 4 hrs, MSD, read-out: IRAK4 MSD degradation in OCI-LY10 at 4 hrs: Average external-Abs DC50
[4] = OCI-LY10, 24 hrs, MSD, read-out: IRAK4 MSD degradation in OCI-LY10 at 24 hrs: Average external-Abs DC50
[5] = OCI-LY10, 4 hrs, read-out: IRAK4 MSD degradation in OCI-LY10 at 4 hrs: DC50
[6] = OCI-LY10, 24 hrs, read-out: IRAK4 MSD degradation in OCI-LY10 at 24 hrs: DC50

Chain of IRAK4 (Q9NWZ3 whole entry): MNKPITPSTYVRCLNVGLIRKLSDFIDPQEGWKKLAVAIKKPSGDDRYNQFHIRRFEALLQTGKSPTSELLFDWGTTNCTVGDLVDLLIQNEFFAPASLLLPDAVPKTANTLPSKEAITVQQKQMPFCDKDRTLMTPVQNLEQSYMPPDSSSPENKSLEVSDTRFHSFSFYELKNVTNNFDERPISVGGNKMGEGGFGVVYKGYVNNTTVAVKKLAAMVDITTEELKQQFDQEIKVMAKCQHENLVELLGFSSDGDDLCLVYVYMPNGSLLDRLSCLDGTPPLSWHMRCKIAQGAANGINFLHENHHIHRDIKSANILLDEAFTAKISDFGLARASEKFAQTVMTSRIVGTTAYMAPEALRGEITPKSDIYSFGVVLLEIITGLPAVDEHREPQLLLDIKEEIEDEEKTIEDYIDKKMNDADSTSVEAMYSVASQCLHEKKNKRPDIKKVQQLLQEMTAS

SMILES	pIC50 [1]	DC50 [2, 3]	DC50 [2, 4]	DC50 [2, 5]	DC50 [2, 6]
Cn1c(=O)n(C2CCC(=O)NC2=O)c2cccc(CCCOC3CCN([C@H]4CC[C@H](Nc5ncnc6ccc(C#N)cc56)CC4)CC3)c21 (stereo partly shown) [I-304, 4-[[4-[4-[3-[1-(2,6-dioxo-3-piperidyl)-3-methyl-2-oxo-benzimidazol-4-yl]propoxy]-1-piperidyl]cyclohexyl]amino] quinazoline-6-carbonitrile]	< 6.00	> 1 µM	> 1 µM	–	–
O=C1CCC(N2C(=O)c3cccc(NCCCOCCCOC[C@H]4CC[C@H](n5cc(NC(=O)c6cnn7ccc(N8C[C@H]9C[C@@H]8CO9)nc67)c(C(F)F)n5)CC4)c3C2=O)C(=O)N1 (stereo partly shown) [I-363]	< 6.00	> 1 µM	–	–	–
CN(CCN(C)CC1CCC(n2cc(NC(=O)c3cnn4ccc(N5C[C@H]6C[C@@H]5CO6)nc34)c(C(F)F)n2)CC1)Cc1ccc(COc2cccc3c2C(=O)N(C2CCC(=O)NC2=O)C3=O)cc1 (stereo partly shown) [I-335]	6.00 to 6.30	0.1 to 1 µM	–	–	–
CN(C[C@H]1CC[C@H](n2cc(NC(=O)c3cnn4ccc(N5CCOCC5)nc34)c(C(F)F)n2)CC1)[C@H]1C[C@H](Nc2cccc3c2C(=O)N(C2CCC(=O)NC2=O)C3=O)C1 (stereo partly shown) [I-458]	< 6.00	–	–	0.1 to 1 µM	> 1 µM
CN(CCN1CCN(c2cccc3c2C(=O)N(C2CCC(=O)NC2=O)C3=O)CC1)C[C@H]1CC[C@H](n2cc(NC(=O)C3CNN4C=CC(N5CCOCC5)=NC34)c(C(F)F)n2)CC1 (stereo partly shown) [I-224]	< 6.00	0.1 to 1 µM	–	–	–
CN(C[C@H]1CC[C@H](n2cc(NC(=O)c3cnn4ccc(NCCC(C)(C)O)nc34)c(C(F)F)n2)CC1)[C@H]1CC[C@H](Nc2cccc3c2C(=O)N(C2CCC(=O)NC2=O)C3=O)CC1 (stereo partly shown) [I-502]	> 7.30	–	–	< 0.01 µM	< 0.01 µM
CN(CCN1CCO[C@@H](CNc2cccc3c2C(=O)N(C2CCC(=O)NC2=O)C3=O)C1)C[C@H]1CC[C@H](n2cc(NC(=O)c3cnn4ccc(N5C[C@H]6C[C@@H]5CO6)nc34)c(C(F)F)n2)CC1 (stereo partly shown) [I-500]	7.00 to 7.30	–	–	0.1 to 1 µM	0.01 to 0.1 µM
Cn1c(=O)n(C2CCC(=O)NC2=O)c2ccc(CCCOCC3CCN(C[C@H]4CC[C@H](n5cc(NC(=O)c6cnn7ccc(N8CCNCC8)nc67)c(C(F)F)n5)CC4)CC3)cc21 (stereo partly shown) [I-163]	< 6.00	< 0.01 µM	–	–	–
CC[C@@H]1[C@H](F)C(=O)N[C@@H]1COc1ncc(C#CC2CCN(CCCC3CCN(c4cccc5c4C(=O)N(C4CCC(=O)NC4=O)C5=O)CC3)CC2)c2cc(C(N)=O)c(OC)cc12 (stereo partly shown) [I-234]	< 6.00	0.1 to 1 µM	0.01 to 0.1 µM	–	–
Cn1c(=O)n(C2CCC(=O)NC2=O)c2cccc(CCCOC3CCN(C[C@H]4CC[C@H](n5cc(NC(=O)c6cnn7ccc(N[C@@H]8CCCC[C@H]8O)nc67)c(C(F)F)n5)CC4)CC3)c21 (stereo partly shown) [I-293]	< 6.00	0.01 to 0.1 µM	–	–	–
Cc1c[nH]c2ncnc(N[C@H]3CC[C@H](N4CCN(C(=O)COCCOCCOCCOCCCc5cccc6c5n(C)c(=O)n6C5CCC(=O)NC5=O)CC4)CC3)c12 (stereo partly shown) [I-25]	< 6.00	> 1 µM	> 1 µM	–	–
CN1C(=O)CCC(N2C(=O)c3cccc(NCCCOC4CCN(C[C@H]5CC[C@H](n6cc(NC(=O)c7cnn8ccc(N9CCOCC9)nc78)c(C(F)F)n6)CC5)CC4)c3C2=O)C1=O (stereo partly shown) [I-368]	< 6.00	> 1 µM	–	–	–
O=C1CCC(N2C(=O)c3cccc(N4CCC(CCCN5CCC(n6cc(NC(=O)c7cnn8ccc(N[C@@H]9CCCC[C@@H]9O)nc78)c(C(F)F)n6)CC5)CC4)c3C2=O)C(=O)N1 (stereo partly shown) [I-298]	6.30 to 7.00	0.1 to 1 µM	–	–	–
CC[C@@H]1[C@H](F)C(=O)N[C@@H]1COc1ncc(C#C[C@H]2CC[C@H](CN(C)CCCc3ccc(CNc4cccc5c4C(=O)N(C4CCC(=O)NC4=O)C5=O)cc3)CC2)c2cc(C(N)=O)c(OC)cc12 (stereo partly shown) [I-338]	> 7.30	0.1 to 1 µM	–	–	–
